Patent US4904664A, “Benzene compounds having two pyridazinone substituents” (Smith Kline & French Laboratories Limited, priority 1985, dated 1990)

Columns and labels:
PDE (Peak III) = test: Inhibition of phosphodiesterase PDE (Peak III) from cat heart; conditions: 1 μM cyclic AMP
Protocol: The enzyme was assayed by incubation at 37° for 4-30 min in 50 mM Tris, 5 mM MgCl2, pH 7.5 with [3-H]cyclic nucleotide (4×10^5 disintegrations min^-1) and [14-C] nucleotide 5' monophosphate (3×10^3 disintegrations min^-1). […] The reaction mixture was diluted with 0.5 ml 100 mM HEPES (N-2-Hydroxyethylpiperazine-N'-2-ethanesulfonic acid), 100 mM NaCl, pH 8.5, and applied to the column. […] The recovery of product as judged by [14-C] recovery was approximately 80%. All assays were linear with time of incubation and concentration of enzyme over the range used in these experiments.

ventricular strips = test: Cardiac stimulant activity in vitro, force of contraction of guinea pig ventricular strips; type: cell-based, Guinea pigs; conditions: Cavia porcellus, read-out: EC50 (50% increase in the force of contraction of the ventricular strips); concentration in bathing fluid
Protocol: The compounds of formula (I) and their pharmaceutically acceptable salts are tested for cardiac stimulant activity following a procedure based on that of S. C. Verma and J. H. McNeill (J. Pharm. & Exp. Therapeutics, 200, 352-362 (1977)). Guinea pigs (500-700 g) of either sex are sacrificed and the hearts are quickly removed and transferred to a dissecting dish containing oxygenated bathing fluid. While in the bathing medium, the right ventricle is cut into two strips. The strips are each suspended in a 50 ml bath containing Krebs Henseleit solution at 37° C., and the bath is bubbled with 95% oxygen and 5% carbon dioxide. The ventricular strips are electrically stimulated at a frequency of 1.0 Hz, at double the threshold voltage. A resting tension of 1.0 g is applied to the strips and the tension is kept constant by readjustment during an equilibration period of 60 minutes. The bathing fluid is frequently changed during this period. When a steady base line is obtained, a compound under test is added to the bathing fluid and a cumulative concentration response curve is plotted.

[1] = system: left ventricular contractility (left ventricular dp/dt max); test: Cardiac stimulant activity in vivo, left ventricular dp/dt max in anaesthetised cats; conditions: Felis catus, iv, read-out: ED50 (dose to increase left ventricular dp/dt max by 50%), i.v., pretreated with pempidine and propranolol
[2] = system: hindquarters perfusion pressure; test: Vasodilator activity in autoperfused anaesthetised cat hind quarters; type: in vivo; conditions: Felis catus, iv, constant blood flow, i.v., read-out: ED15 (i.v. dose to decrease hindquarters perfusion pressure by 15%)
Protocol: The compounds of the Examples were tested in autoperfused anaesthetised cat hind quarters (autoperfused at constant blood flow). The i.v. dose to decrease hindquarters perfusion pressure (vasodilatation) by 15% is given as the ED15.

[3] = system: histamine-induced bronchoconstriction; test: Bronchodilatation in vivo, histamine-induced bronchoconstriction in anaesthetised guinea-pigs; parameters: species or system Dunkin Hartley strain; conditions: n=1
Protocol: Male guinea-pigs of the Dunkin Hartley strain (500-600 g) were anaesthetised with Sagatal (pentobarbital sodium) (60 mg/kg i.p.). Airway resistance was measured using a modification of the classical Konzett-Rossler technique (Versuchsanordnung zu Untersuchungen an der Bronchialmuskulatur. Naunyn-Schmiedebergs Arch. Exp. Path. Pharmak., 195: pp 71-74, (1940)). A dose of histamine which gave approximately 150% increase in airway resistance was selected for i.v. administration. Bolus doses of the compound of Example 6 were administered (i.v.) on minute before the histamine challenge (n=1).

Row | IC50 (PDE (Peak III)) | EC50 (ventricular strips) | Compound | ED50 [1] | ED15 [2] | ED50 ([3]; Cavia porcellus, iv, read-out: ED50 (dose which would reduce the histamine bronchoconstriction by 50%), i.v. one minute before histamine challenge, calculated by interpolation) | effect on histamine-induced bronchoconstriction ([3]; i.v., in words)
1 | 330 nM | 900 nM | O=c1ccc(-c2ccc(-c3ccc(=O)[nH]n3)cc2)n[nH]1 [Example 1, 1,4-Bis(6-oxo-1,6-dihydropyridazin-3-yl)benzene] | 0.04 µmol/kg |  |  | 
2 | 640 nM |  | O=C1CCC(c2ccc(C3=NNC(=O)CC3)cc2)=NN1 [Example 2, 1,4-Bis(6-oxo-1,4,5,6-tetrahydropyridazin-3-yl)benzene] | 0.55 µmol/kg | 0.12 µmol/kg |  | 
3 | 110 nM |  | CC1CC(=O)NN=C1c1ccc(C2=NNC(=O)CC2C)cc1 (stereo not drawn) [Example 3, 1,4-Bis(4-methyl-6-oxo-1,4,5,6-tetrahydropyridazin-3-yl)benzene] | 0.06 µmol/kg | 0.04 µmol/kg |  | 
4 | 37500 nM |  | Cc1cc(=O)[nH]nc1-c1ccc(-c2n[nH]c(=O)cc2C)cc1 [Example 4, 1,4-Bis(4-methyl-6-oxo-1,6-dihydropyridazin-3-yl)benzene] |  |  |  | 
5 | 3900 nM |  | O=c1ccc(-c2cccc(-c3ccc(=O)[nH]n3)c2)n[nH]1 [Example 5, 1,3-Bis(6-oxo-1,6-dihydropyridazin-3-yl)benzene] | 3.16 µmol/kg | 3.23 µmol/kg |  | 
6 | 70 nM |  | CC1CC(=O)NN=C1c1ccc(-c2ccc(=O)[nH]n2)cc1 (stereo not drawn) [Example 6, 6-[4-(4-Methyl-6-oxo-1,4,5,6-tetrahydropyridazin-3-yl)phenyl]pyridazin-3(2H)-one] | 0.02 µmol/kg | 0.01 µmol/kg | 0.033 µmol/kg | reduced the histamine-induced bronchoconstriction
